Molecular target: T1, recombinant E. coli purine nucleoside phosphorylase (PNP) (Escherichia coli, UniProt P0ABP8)
T1 construct: gene deoD
T1 sequence (P0ABP8 2-239): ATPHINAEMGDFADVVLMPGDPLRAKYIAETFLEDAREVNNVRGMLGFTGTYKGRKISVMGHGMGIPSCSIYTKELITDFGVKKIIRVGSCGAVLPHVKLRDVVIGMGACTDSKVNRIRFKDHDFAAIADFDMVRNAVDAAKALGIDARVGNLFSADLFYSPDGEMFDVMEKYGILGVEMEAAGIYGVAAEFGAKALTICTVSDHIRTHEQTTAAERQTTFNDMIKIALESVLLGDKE
Assay: inhibition of PNP nucleoside synthesis
Format: biochemical
Conditions: not a substrate; moderate inhibitor of the synthetic reaction; no value

## Nc1nc(=O)n2ccn([C@@H]3O[C@H](CO)[C@@H](O)[C@@H]3O)c2n1 [4b, arabinoside 4b]
  inhibition of PNP nucleoside synthesis: nucleosides 4b and 5b are not substrates for E. coli PNP and moderately inhibit

## O=c1[nH]cnc2c1cnn2[C@@H]1O[C@H](CO)[C@@H](O)[C@@H]1O [5b, arabinoside 5b]
  inhibition of PNP nucleoside synthesis: nucleosides 4b and 5b are not substrates for E. coli PNP and moderately inhibit

— publication PMC4142866, “The chemoenzymatic synthesis of clofarabine and related 2′-deoxyfluoroarabinosyl nucleosides: the electronic and stereochemical factors determining substrate recognition by E. coli nucleoside phosphorylases” (Beilstein Journal of Organic Chemistry, 2014)
